Consider two compounds from patent US8492441B2, “Dosage regimen of an S1P receptor agonist” (Novartis AG, priority 2008, dated 2013).

The subject of data set [1] is subjects. Nature of the data set: Example 1 dose titration study: continuous telemetry of heart rate (daily minimum heart rate, HRmin). The data set is classed as in vivo, human. How it is done:
(§1) Increasing doses of Compound A starting at 0.25 mg o.d. and ending at the maximal therapeutic dose of 10 mg o.d. are given to 28 subjects over 12 days as specified in Table 1 below. A placebo group and a positive control group receiving the 10 mg final therapeutic dose are also included in the study (each of 14 subjects).
On Day −1 (baseline), subjects undergo baseline assessments including 24 hour holter monitoring and telemetry assessments. Subjects remain on continuous telemetry, starting before breakfast on Day −1 and proceeding throughout the administration period up to Day 13 (24 hour after the last dose). Over this 13 day duration of continuous heart rate collection for each subject, one heart rate value is obtained every minute (‘minute unit heart rate’), representing the average heart rate value over that minute. The heart rate database for each subject contains approximately […] data points (13 days×24 hr×60 min).
The daily chronotropic effect is defined as the percent decrease in HRmin between two consecutive days. It is calculated on days 1 to 12.
(§2) Cardiac conduction intervals: arrhythmia monitoring includes the frequency and duration of sinus pauses (>2 sec and >3 sec) and atrio-ventricular blocks. Frequency and duration of atrial and ventricular ectopy and sinus rhythm are also recorded. The daily chronotropic effect is defined as the percent decrease in HRmin, (minimum heart rate) between two consecutive days. It is calculated on days 1 to 12.
The variation in daily minimum heart rate, HRmin (minimum of 24 hourly mean heart rates) over the course of the study is shown in FIG. 1.

Data set [2] deals with subjects. Kind of data set: Example 1 dose titration study: Holter monitoring of ectopies (SVEs, VEs) and pauses >2 secs. The data set is classed as in vivo, human. The conditions noted are these: for subjects with total number of SVEs 0-10 / subjects with total number of SVEs 11-20 / subjects with total number of SVEs 21-50 / subjects with total number of SVEs >50 / subjects with total number of VEs 0-5 / subjects with total number of VEs 6-10 / subjects with total number of VEs 11-30 / subjects with total number of VEs >30 / subjects with total number of pauses >2 secs: 0 / subjects with total number of pauses >2 secs: 1 / subjects with total number of pauses >2 secs: >1: any time during the 12-day treatment period. As for the experimental part: as §1
Pharmacodynamic and safety assessments are performed up to 24 hours post last dose. Heart rhythm is assessed via 24 hr continuous holter monitoring on Day −1, Day 1, Day 11 and Day 12. For each dosing for each subject, the drug is administered as closely as practically possible to the time administered on Day −1. Safety assessments includes physical examinations, vital signs and body measurements, 12-lead ECG evaluations, standard clinical laboratory evaluations hematology, blood chemistry, urinalysis, adverse event and serious adverse event monitoring.
24-hour continuous Holter-ECG data are captured via a digital Holter monitor (12-lead, on Days […]), and transferred for interpretation and reporting. Holter monitoring starts approximately at 7:00 and the time of dose administration is regarded as the time “0 hours”. Holter “cuts” are derived from the dataset at 1 hour intervals starting from Day −1 and continuing for 24 hours or the end of the cleaned Holter monitoring dataset.
as §2

For data set [3], the system named is healthy subjects. Nature of the data set: Absolute lymphocyte count after multiple daily doses (FIG. 2). Type of data set: in vivo, human. From the text:
Preferred medications comprise medication for patients suffering from chronic longterm diseases, such as autoimmune diseases, e.g. multiple sclerosis, Polymyositis, lupus nephritis, rheumatoid arthritis, inflammatory bowel diseases or psoriasis. In an embodiment of the invention, medications are medications for patients suffering from multiple sclerosis, for example relapse remitting multiple sclerosis (RRMS) or primary progressive multiple sclerosis (PPMS), e.g. for patients suffering from RRMS.

Data set [4] deals with healthy subjects. Particulars: administration of 1.25 mg; cited from earlier work.
The next data set concerns multiple sclerosis. The conditions noted are these: humans; cited from earlier work.
Where [5] appears, read: 10 mg daily from Day 1 (N = 14).
Where [6] appears, read: DT#1 titration 0.25 to 10 mg (N = 14).
The mark [7] stands for this setting: DT#2 titration (Fibonacci) 0.25 to 10 mg (N = 14).

For the compound `CCc1cc(/C(C)=N/OCc2ccc(C3CCCCC3)c(C(F)(F)F)c2)ccc1CN1CC(C(=O)O)C1` [Compound A, 1-{4-[1-(4-cyclohexyl-3-trifluoromethyl-benzyloxyimino)-ethyl]-2-ethyl-benzyl}-azetidine-3-carboxylic acid], in the data set on subjects [1] (10 mg treatment group, from Day 1 to Day 2), the “increase in heart rate” value is on record as “approximately 5 BPM”. The “decrease in heart rate” value with subjects [1] (10 mg treatment group, from Day -1 to Day 1) is recorded as “approximately 8 BPM”. Besides, in the data set with subjects [1] (10 mg treatment group, from day 2 to day 4), the “further increase in heart rate” value is listed as “approximately 3 BPM”. The “gradual decrease in heart rate per day” value in the data set on subjects [1] (both titration groups (DT#1, DT#2), first seven days of the dose titration) is reported as 1-2 BPM per day. In the data set on subjects [1] (both titration groups (DT#1, DT#2), over the first seven days of the dose titration), the “total reduction in heart rate” value is on record as 4-5 BPM. Also, in the data set with subjects [1] (both titration groups, over the next 2-3 days after the first seven days), the “heart rate recovery after day 7” value was “the heart rate increased to approximately the placebo level”. In addition, the “dip in heart rate on initiation of the 10 mg dose after titration” value with subjects [1] (titration groups, 10 mg dose initiated on Days 8 and 9, compared to preceding days) is given as “did not result in a significant dip in heart rate”. The “effect of dose titration regimen on negative chronotropic effect” value in the data set on subjects [1] (titration regimen vs Day 1 of 10 mg dose treatment initiation) is recorded as “attenuates the negative chronotropic effect”. In the data set on subjects [2] (setting [5]), the “subjects with total number of SVEs 0-10” value was 1 (7.1%) n (%), the “subjects with total number of SVEs 11-20” value was 2 (14.3%) n (%), the “subjects with total number of SVEs 21-50” value is 5 (35.7%) n (%) and the “subjects with total number of SVEs >50” value was 6 (42.9%) n (%). Besides, in the data set with subjects [2] (setting [5]), the “subjects with total number of VEs 0-5” value is listed as 6 (42.9%) n (%), the “subjects with total number of VEs 6-10” value is given as 4 (28.6%) n (%), the “subjects with total number of VEs 11-30” value was 1 (7.1%) n (%) and the “subjects with total number of VEs >30” value is 3 (21.4%) n (%). Further, in the data set on subjects [2] (setting [5]), the “subjects with total number of pauses >2 secs: 0” value (shortened to “subjects … of pauses >2 secs: 0”) is reported as 10 (71.4%) n (%), the “subjects with total number of pauses >2 secs: 1” value (“subjects … of pauses >2 secs: 1” for short) is recorded as 1 (7.1%) n (%) and the “subjects with total number of pauses >2 secs: >1” value (“subjects with total number … >1” below) is listed as 3 (21.4%) n (%). Further, in the data set with subjects [2] (setting [6]), the “subjects with total number of SVEs 0-10” value is 1 (7.1%) n (%), the “subjects with total number of SVEs 11-20” value is given as 3 (21.4%) n (%), the “subjects with total number of SVEs 21-50” value is recorded as 2 (14.3%) n (%) and the “subjects with total number of SVEs >50” value is 8 (57.1%) n (%). Further, in the data set with subjects [2] (setting [6]), the “subjects with total number of VEs 0-5” value is recorded as 3 (21.4%) n (%), the “subjects with total number of VEs 6-10” value was 5 (35.7%) n (%), the “subjects with total number of VEs 11-30” value is recorded as 4 (28.6%) n (%) and the “subjects with total number of VEs >30” value is given as 2 (14.3%) n (%). In the data set on subjects [2] (setting [6]), the “subjects … of pauses >2 secs: 0” value is on record as 10 (71.4%) n (%), the “subjects … of pauses >2 secs: 1” value is 1 (7.1%) n (%) and the “subjects with total number … >1” value was 3 (21.4%) n (%). Also, in the data set on subjects [2] (setting [7]), the “subjects with total number of SVEs 0-10” value is 0 n (%), the “subjects with total number of SVEs 11-20” value is 1 (7.1%) n (%), the “subjects with total number of SVEs 21-50” value is on record as 4 (28.6%) n (%) and the “subjects with total number of SVEs >50” value is given as 9 (64.3%) n (%). In the data set on subjects [2] (setting [7]), the “subjects with total number of VEs 0-5” value is given as 3 (21.4%) n (%), the “subjects with total number of VEs 6-10” value was 2 (14.3%) n (%), the “subjects with total number of VEs 11-30” value is given as 5 (35.7%) n (%) and the “subjects with total number of VEs >30” value is 4 (28.6%) n (%). Besides, in the data set with subjects [2] (setting [7]), the “subjects … of pauses >2 secs: 0” value is recorded as 13 (92.9%) n (%), the “subjects … of pauses >2 secs: 1” value is reported as 0 n (%) and the “subjects with total number … >1” value is 1 (7.1%) n (%). The “number of heart pauses greater than 2 seconds, comparison of regimens” value in the data set on subjects [2] (second titration regimen DT#2 (Fibonacci sequence) vs the other active treatment regimens) is listed as “lower number of heart pauses greater than 2 seconds”. Also, the “absolute lymphocyte count in the blood” value in the data set on healthy subjects [3] is recorded as “reduces the absolute lymphocyte count”.
As to `CCCCCCCCc1ccc(CCC(N)(CO)CO)cc1` [FTY720], the “decrease in heart rate” value in the data set on healthy subjects [4] is “approximately 8 beats/min (BPM)”. In addition, the “efficacy in the treatment of multiple sclerosis” value in the data set with multiple sclerosis is “has been demonstrated in humans”.
